This note sets out measurements from patent EP0320984A2, “1,4-Dihydropyridine derivatives” (FUJIREBIO INC., priority 1987, dated 1989).

This test has as its system Rabbit platelet rich plasma (PRP). Description: Inhibitory activity on platelet aggregation in rabbit platelet rich plasma (light transmission). In kind it is cell-based. The conditions noted are these: added to PRP 30 minutes before agent; for Inhibitory activity on platelet aggregation, PAF: compound 3x10^-6 (unit not given), Platelet activating factor (PAF) 10 mg/ml; for Inhibitory activity on platelet aggregation, ADP / Inhibitory activity on platelet aggregation, AA / Inhibitory activity on platelet aggregation, Collagen: compound 10^-4 (unit not given); for Inhibitory activity on platelet aggregation, ADP: Adenosine diphosphate (ADP) 5 mM; for Inhibitory activity on platelet aggregation, AA: Arachidonic acid (AA) 1 mM; for Inhibitory activity on platelet aggregation, Collagen: aggregating agent collagen. On the procedure:
3. Experiment for inhibitory activity on platelet aggregation in rabbit:
Rabbit platelet rich plasma (PRP) was prepared by centrifugation of the citrated blood at 380 g for 10 minutes at 20°C. Test solution (10 µl) was added to PRP (200 µl) 30 minutes before treatment of aggregation agents (10 µl). The extent of aggregation was expressed with the maximum change in light transmission for PRP and platelet poor plasma was taken as a value of 100%

Consider `COC(=O)C1=C(C)NC(C)=C(C(=O)OC/C(C)=C/c2ccc(Cn3ccnc3)cc2)C1c1cccc([N+](=O)[O-])c1` (stereo not shown) [Example 8, (E)-3-{4-(1-imidazolylmethyl)phenyl}-2-methyl-2-propen-1-yl methyl 1,4-dihydro-2,6-dimethyl-4-(3-nitro-phenyl)pyridine-3,5-dicarboxylate], for which the “Inhibitory activity on platelet aggregation, PAF” value (“Inhibitory activity … PAF” for short) amounted to 28.9%; the “Inhibitory activity on platelet aggregation, ADP” value (“Inhibitory activity … ADP” below) was found to be 10.8%; the “Inhibitory activity on platelet aggregation, AA” value (shortened to “Inhibitory activity … AA”) amounted to 18.8%; the “Inhibitory activity on platelet aggregation, Collagen” value (“Inhibitory activity … Collagen” below) came out at 18.9%.

Regarding `COC(=O)C1=C(C)NC(C)=C(C(=O)OC/C=C/c2ccc(Cn3cnnc3)cc2)C1c1cccc([N+](=O)[O-])c1` (stereo not shown) [Example 9], the “Inhibitory activity … PAF” value came to 78.8%; the “Inhibitory activity … ADP” value was found to be 6.5%; the “Inhibitory activity … AA” value turned out to be 5.9%; the “Inhibitory activity … Collagen” value is listed as 11.1%.

`COC(=O)C1=C(C)NC(C)=C(C(=O)OC/C=C/c2ccc(Cn3cncn3)cc2)C1c1cccc([N+](=O)[O-])c1` (stereo not shown) [Example 10, Methyl (E)-3-{4-(1,2,4-triazol-1-ylmethyl)phenyl}-2propen-1-yl 1,4-dihydro-2,6-dimethyl-4-(3-nitrophenyl)pyridine-3,5-dicarboxylate]: the “Inhibitory activity … PAF” value was 24.4%; the “Inhibitory activity … ADP” value is 2.1%; the “Inhibitory activity … AA” value is reported as 5.0%; the “Inhibitory activity … Collagen” value stood at 5.5%.

With `COC(=O)C1=C(C)NC(C)=C(C(=O)OC/C=C/c2ccc(Cn3cnnn3)cc2)C1c1cccc([N+](=O)[O-])c1` (stereo not shown) [Example 11, Methyl (E)-3-{4-(1,2,3,4-tetrazol-1-ylmethyl)phenyl}-2-propen-1-yl 1,4-dihydro-2,6-dimethyl-4-(3-nitrophenyl)pyridine-3,5-dicarboxylate], the “Inhibitory activity … PAF” value turned out to be 31.1%; the “Inhibitory activity … ADP” value is 1.3%; the “Inhibitory activity … AA” value is reported as 2.9%; the “Inhibitory activity … Collagen” value is 7.1%.

For the molecule `COC(=O)C1=C(C)NC(C)=C(C(=O)OC/C=C/c2ccc(Cn3ccnc3)cc2)C1c1cccc(Cl)c1Cl` (stereo not shown) [Example 12, (E)-3-{4-(1-imidazolylmethyl)phenyl}-2-propen-1-yl methyl 1,4-dihydro-2,6-dimethyl-4-(2,3-dichlorophenyl)pyridine-3,5-dicarboxylate], the “Inhibitory activity … PAF” value turned out to be 51.8%; the “Inhibitory activity … ADP” value is 7.3%; the “Inhibitory activity … AA” value is 11.4%; the “Inhibitory activity … Collagen” value stood at 10.3%.

In the case of `COC(=O)C1=C(C)NC(C)=C(C(=O)OC/C(F)=C/c2ccc(Cn3ccnc3)cc2)C1c1cccc([N+](=O)[O-])c1` (stereo not shown) [Example 13, (Z)-3-{4-(1-imidazolylmethyl)phenyl}-2-fluoro-2-propen-1-yl methyl 1,4-dihydro-2,6-dimethyl-4-(3-nitrophenyl)pyridine-3,5-dicarboxylate], the “Inhibitory activity … PAF” value was 49.6%; the “Inhibitory activity … ADP” value stood at 10.9%; the “Inhibitory activity … AA” value turned out to be 17.4%; the “Inhibitory activity … Collagen” value is on record as 6.3%.

Turning to `CC1=C(C(=O)OC/C=C/c2ccccc2)C(c2cccc([N+](=O)[O-])c2)C(C(=O)OC/C=C/c2ccc(Cn3ccnc3)cc2)=C(C)N1` (stereo not shown) [Example 14, (E)-cinnamyl (E)-3-{4-(1-imidazolylmethyl)phenyl}-2-propen-1-yl 1,4-dihydro-2,6-dimethyl-4-(3-nitrophenyl)pyridine-3,5-dicarboxylate], the “Inhibitory activity … PAF” value was 44.7%; the “Inhibitory activity … ADP” value was 4.3%; the “Inhibitory activity … AA” value is recorded as 42.0%; the “Inhibitory activity … Collagen” value amounted to 69.6%.

For `COCCOC(=O)C1=C(C)NC(C)=C(C(=O)OC/C=C/c2ccc(Cn3ccnc3)cc2)C1c1cccc([N+](=O)[O-])c1` (stereo not shown) [Example 16, (E)-3-{4-(1-imidazolylmethyl)phenyl}-2-propen-1-yl 2-methoxyethyl 1,4-dihydro-2,6-dimethyl-4-(3-nitrophenyl)pyridine-3,5-dicarboxylate], the “Inhibitory activity … PAF” value is reported as 42.4%; the “Inhibitory activity … ADP” value came out at 7.1%; the “Inhibitory activity … AA” value worked out at 33.7%; the “Inhibitory activity … Collagen” value came to 24.7%.

For `COC(=O)C1=C(C)NC(C)=C(C(=O)OC/C=C/c2ccc(Cn3ccnc3)cc2)C1c1cccc(C(F)(F)F)c1` (stereo not shown) [Example 17, (E)-3-{4-(1-imidazolylmethyl)phenyl}-2-propen-1-yl methyl 1,4-dihydro-2,6-dimethyl-4-(3-trifluoromethylphenyl)pyridine-3,5-dicarboxylate], the “Inhibitory activity … PAF” value is 39.7%; the “Inhibitory activity … ADP” value is 10.5%; the “Inhibitory activity … AA” value was determined as 37.8%; the “Inhibitory activity … Collagen” value came out at 55.0%.

As to `COC(=O)C1=C(C)NC(C)=C(C(=O)OC/C=C/c2ccc(Cn3ccnc3)cc2)C1c1ccccc1C#N` (stereo not shown) [Example 18, (E)-3-{4-(1-imidazolylmethyl)phenyl}-2-propen-1-yl methyl 1,4-dihydro-2,6-dimethyl-4-(2-cyanophenyl)pyridine-3,5-dicarboxylate], the “Inhibitory activity … PAF” value came out at 48.6%; the “Inhibitory activity … ADP” value came to 8.8%; the “Inhibitory activity … AA” value was 30.4%; the “Inhibitory activity … Collagen” value was 61.8%.

Regarding `COC(=O)C1=C(C)NC(C)=C(C(=O)OC/C=C/c2ccccc2Cn2ccnc2)C1c1cccc([N+](=O)[O-])c1` (stereo not shown) [Example 20, (E)-3-{2-(1-imidazolylmethyl)phenyl}-2-propen-1-yl methyl 1,4-dihydro-2,6-dimethyl-4-(3-nitrophenyl)pyridine-3,5-dicarboxylate], the “Inhibitory activity … PAF” value is recorded as 0%; the “Inhibitory activity … ADP” value stood at 9.5%; the “Inhibitory activity … AA” value worked out at 30.4%; the “Inhibitory activity … Collagen” value turned out to be 32.3%.

Take `COC(=O)C1=C(C)NC(C)=C(C(=O)OC/C=C/c2cccc(Cn3ccnc3)c2)C1c1cccc([N+](=O)[O-])c1` (stereo not shown) [Example 21, (E)-3-{3-(1-imidazolylmethyl)phenyl}-2-propen-1-yl methyl 1,4-dihydro-2,6-dimethyl-4-(3-nitrophenyl)pyridine-3,5-dicarboxylate]: the “Inhibitory activity … PAF” value was 25.4%; the “Inhibitory activity … ADP” value was determined as 17.3%; the “Inhibitory activity … AA” value is listed as 37.6%; the “Inhibitory activity … Collagen” value was determined as 29.5%.

`COC(=O)C1=C(C)NC(C)=C(C(=O)OC/C=C/c2ccc(Cn3ccnc3)cc2)C1c1cccnc1` (stereo not shown) [Example 22, (E)-3-{4-(1-imidazolylmethyl)phenyl}-2-propen-1-yl methyl 1,4-dihydro-2,6-dimethyl-4-(3-pyridyl)pyridine-3,5-dicarboxylate]: the “Inhibitory activity … PAF” value worked out at 0%; the “Inhibitory activity … ADP” value was 14.7%; the “Inhibitory activity … AA” value is reported as 23.2%; the “Inhibitory activity … Collagen” value was determined as 24.7%.

Regarding `COC(=O)C1=C(C)NC(C)=C(C(=O)OC/C=C/c2ccc(Cn3ccnc3)cc2)C1c1ccnc2ccccc12` (stereo not shown) [Example 23, (E)-3-{4-(1-imidazolylmethyl)phenyl}-2-propen-1-yl methyl 1,4-dihydro-2,6-dimethyl-4-(4-quinolyl)pyridine-3,5-dicarboxylate], the “Inhibitory activity … PAF” value amounted to 0%; the “Inhibitory activity … ADP” value is 2.6%; the “Inhibitory activity … AA” value was 25.7%; the “Inhibitory activity … Collagen” value turned out to be 29.5%.

`COC(=O)C1=C(C)NC(C)=C(C(=O)OC/C=C/c2cccc(Cn3ccnc3)n2)C1c1cccc([N+](=O)[O-])c1` (stereo not shown) [Example 25, (E)-3-{6-(1-imidazolylmethyl)pyridine-2-yl}-2-propen-1-yl methyl 1,4-dihydro-2,6-dimethyl-4-(3-nitrophenyl)pyridine-3,5-dicarboxylate]: the “Inhibitory activity … PAF” value was determined as 28.5%; the “Inhibitory activity … ADP” value is given as 0%; the “Inhibitory activity … AA” value is 27.8%; the “Inhibitory activity … Collagen” value is listed as 22.5%.

Regarding `COC(=O)C1=C(C)NC(C)=C(C(=O)OCCON=Cc2ccc(Cn3ccnc3)cc2)C1c1cccc([N+](=O)[O-])c1` (stereo not shown) [Example 26, 2-[{4-(1-imidazolylmethyl)benzylideneamino}oxy]ethyl methyl 1,4-dihydro-2,6-dimethyl-4-(3-nitrophenyl)pyridine3,5-dicarboxylate], the “Inhibitory activity … PAF” value is on record as 30.0%; the “Inhibitory activity … ADP” value turned out to be 6.0%; the “Inhibitory activity … AA” value is 27.6%; the “Inhibitory activity … Collagen” value was 13.5%.
